Experiment: xn = mol fraction of the nth substance listed
Details: 101.3 kPa

CS(C)=O + CCOCC[n+]1ccn(CCC#N)c1.O=S(=O)([N-]S(=O)(=O)C(F)(F)F)C(F)(F)F
x2 = 0
Details | electrical conductivity [S/m] | viscosity [mPa·s]
293.15 K | 0.0006 | 2.48
303.15 K | 0.0009 | 2.025
313.15 K | 0.0012 | 1.619
323.15 K | 0.0015 | 1.433

CS(C)=O + COCCOCCn1cc[n+](CCC#N)c1.O=S(=O)([N-]S(=O)(=O)C(F)(F)F)C(F)(F)F
x2 = 0
Details | electrical conductivity [S/m] | viscosity [mPa·s]
293.15 K | 0.0006 | 2.479
303.15 K | 0.0009 | 2.025
313.15 K | 0.0012 | 1.619
323.15 K | 0.0015 | 1.433

CCOCC[n+]1ccn(CCC#N)c1.O=S(=O)([N-]S(=O)(=O)C(F)(F)F)C(F)(F)F + CS(C)=O
Details | electrical conductivity, 293.15 K [S/m] | electrical conductivity, 303.15 K [S/m] | electrical conductivity, 313.15 K [S/m] | electrical conductivity, 323.15 K [S/m] | viscosity, 293.15 K [mPa·s] | viscosity, 303.15 K [mPa·s] | viscosity, 313.15 K [mPa·s] | viscosity, 323.15 K [mPa·s]
x1 = 0.0989 | 0.0011 | 0.0013 | 0.0016 | – | 8.21 | 5.53 | 4.312 | –
x1 = 0.1981 | 0.004 | 0.0048 | 0.0061 | – | 10.18 | 7.07 | 5.24 | –
x1 = 0.2776 | 0.0096 | 0.0117 | 0.0152 | 0.0204 | 16.76 | 11.64 | 8.48 | 6.42
x1 = 0.3971 | 0.0179 | 0.0218 | 0.0282 | – | 25.7 | 17 | 12.01 | –
x1 = 0.5029 | 0.0284 | 0.0351 | 0.0457 | – | 40.9 | 28 | 18.99 | –
x1 = 0.597 | – | 0.0477 | 0.063 | 0.0866 | – | 38.6 | 26.33 | 18.01
x1 = 0.721 | 0.0472 | – | 0.0763 | – | 72.2 | – | 28.66 | –
x1 = 0.798 | – | 0.0985 | 0.13 | 0.188 | – | 57.8 | 36.8 | 28.6
x1 = 0.89 | – | 0.0843 | 0.119 | 0.165 | – | 124.2 | 78.2 | 56.6
x1 = 1 | 0.057 | 0.0705 | 0.0957 | 0.14 | 401 | 235.6 | 146.2 | 105

COCCOCCn1cc[n+](CCC#N)c1.O=S(=O)([N-]S(=O)(=O)C(F)(F)F)C(F)(F)F + CS(C)=O
Details | electrical conductivity, 293.15 K [S/m] | electrical conductivity, 303.15 K [S/m] | electrical conductivity, 313.15 K [S/m] | electrical conductivity, 323.15 K [S/m] | viscosity, 293.15 K [mPa·s] | viscosity, 303.15 K [mPa·s] | viscosity, 313.15 K [mPa·s] | viscosity, 323.15 K [mPa·s]
x1 = 0.0989 | 0.002 | 0.0023 | 0.0028 | 0.0034 | 6.1 | 4.244 | 3.145 | 2.453
x1 = 0.1981 | – | 0.0077 | 0.0094 | – | – | 5.65 | 4.14 | –
x1 = 0.2776 | 0.0093 | – | 0.0144 | 0.0193 | 13.52 | – | 6.42 | 5
x1 = 0.3971 | 0.0202 | 0.0243 | 0.031 | 0.043 | 19.5 | 13.05 | 8.55 | 6.4
x1 = 0.5029 | 0.0321 | – | 0.0518 | 0.0698 | 39.8 | – | 16.92 | 12.64
x1 = 0.597 | 0.0411 | 0.051 | 0.0672 | 0.0919 | 53.9 | 33.04 | 22.38 | 16.15
x1 = 0.721 | 0.0589 | 0.0732 | 0.0977 | 0.134 | 64.3 | 36.5 | 24.89 | 17.98
x1 = 0.798 | 0.0885 | 0.111 | – | – | 90.8 | 49.7 | – | –
x1 = 0.89 | 0.0746 | – | – | 0.175 | 145.2 | – | – | 37.5
x1 = 1 | 0.0654 | 0.0831 | 0.112 | 0.158 | 296 | 169 | 103.2 | 74.6

Reference: a compilation of properties of binary mixtures (doi:10.1016/j.molliq.2020.114841)
